Data: PMC6241247, “Development and Application of an UHPLC-MS/MS Method for Comparative Pharmacokinetic Study of Eight Major Bioactive Components from Yin Chen Hao Tang in Normal and Acute Liver Injured Rats” (Evidence-based Complementary and Alternative Medicine : eCAM, 2018)

Tests used:
[1] = Plasma pharmacokinetics after oral administration of YCHT in control (normal) rats, UHPLC-MS/MS; format: in vivo, Sprague-Dawley rats; details: for CL/F / Cmax / MRT inf / MRT last / Tmax / half-life: Sprague-Dawley
Source text: The validated method was used for the pharmacokinetic study.
P<0.05 represented statistical significance.

[2] = Plasma pharmacokinetics after oral administration of YCHT in model (CCl4-induced acute liver injury) rats, UHPLC-MS/MS
Description: The quality control (QC) and plasma samples were analyzed by an Agilent 6470 triple quadrupole LC–MS system (Agilent Technologies, Inc., Santa Clara, CA, USA), which consists of an Agilent 1290 Infinity II system connected to a triple quadrupole MS analyzer with an Agilent Jet Stream technologies electrospray ionization (ESI) interface. The Agilent 1290 LC system is equipped with degasser (G7116B), high speed pump (G7120A) and multisampler (G7167B). The samples (2 μL) were injected into the LC system. A MassHunter workstation was applied for LC–MS control and data acquisition.
Chromatographic separation was conducted with a CAPCELL PAK ADME (2.1 mm × 100 mm, 3 μm; Shiseido Co., Ltd., Tokyo, Japan). The mobile phase included 0.1% formic acid (A) and methanol (B), and the flow rate was 0.3 mL/min. Iridoid glycosides and anthraquinones were detected in the isocratic elution, which was kept 80% B for 5.5 min in the negative mode. The others were separated in the positive mode with another gradient program, which was maintained at 45% B for 0.5 min, then increased to 95% B in 2 min, and maintained at 95% B until 4.5 min, and the post time is 2 min.
The optimal parameters for the ESI interface were as follows: nebulizer, 45 psi; dry gas, 10 L/min; dry temp, 350°C; sheath gas, 11 L/min; sheath gas temp, 350°C; capillary voltage, 4000 V (in the positive mode) and 3500 V (in the negative mode); and delta EMV, 200 V. The MS parameters for iridoid glycosides and anthraquinones were improved in the negative mode, and the MS parameters for the other analytes were improved in positive mode.
The animals were randomly divided into the control group (n = 6) and the model group (n = 6): the model rats, i.e., acute liver injury rats, were induced by intraperitoneal injections of CCl4 diluted with olive oil (1:1, v/v) at a dose of 1.5 mL/kg.bw every day for three days, and the rats in the control group were administered with olive oil.
After being thawed at room temperature, 100 μL plasma was put in a 1.5 mL centrifuge tube, and then 100 μL IS solution and 300 μL acetonitrile was added. After the mixture was vortexed for 1 min, it was centrifuged at 12000 rpm for 10 min at 4°C to precipitate the protein. Then the supernatant was transferred to another clean centrifuge tube, and evaporated to dryness under nitrogen stream, the residue was reconstituted in 50 μL methanol-water (1:1, v/v). After centrifuging at 12000 rpm for 10 min at 4°C again, a 2 μL aliquot of supernatant was injected for LC–MS/MS analysis.
The validated method was used for the pharmacokinetic study. Standard diet was withheld over night before oral administration of YCHT, but with free access to water. And YCHT (60 g/kg) was administered to the rats by gastric perfusion, equivalent to 10.09 mg/kg of scoparone, 0.49 mg/kg scopoletin, 17.16 mg/kg of geniposide, 9.86 mg/kg of rhein, 2.66 mg/kg of aloe-emodin, 2.24 mg/kg of chrysophanol, 0.83 mg/kg of emodin, and 0.58 mg/kg of physcion.
A series of blood samples (0.3 mL) were collected from the rats' postorbital venous plexuses at 0 (pre-dose), 5, 10, 15, 30, 45, 60, 90, 120, 240, 480, 600, 720 and 1440 min, and put into heparinized tubes. The heparinized plasma was immediately centrifuged to separate at 3000 g for 10 min and stored at −80°C before experiments. The analytes' concentrations in plasma were determined by LC–MS/MS methods described above.
The plasma concentrations were expressed as arithmetic mean ± standard deviation (SD). And the mean concentration–time curves were calculated and plotted by DAS (version 3.0, Bio Guider Co., Shanghai, China), and the PK parameters consist of elimination half-life (t1/2), area under the plasma concentration-time curve (AUC), and mean residence time (MRT). The maximum plasma concentrations (Cmax) and corresponding peak time (Tmax) were obtained from the observed data directly.

P-glycoprotein (P-gp) = test system: P-glycoprotein (P-gp); set-up: method as in PMID 25776492, PMID 26121397; details: cited from earlier work
[3] = control rats, oral YCHT 60 g/kg, plasma, n = 6
[4] = Fr = (AUCmodel/AUCcontrol)∗100%, oral YCHT 60 g/kg
[5] = Sprague-Dawley, rat, in vivo, po, 60 g/kg
[6] = model (CCl4 liver injured) rats, oral YCHT 60 g/kg, plasma, n = 6
[7] = rat, in vivo, control rats, oral YCHT 60 g/kg, plasma, n = 6, read-out: CLz/F (converted)
[8] = rat, in vivo, control rats, oral YCHT 60 g/kg, plasma, n = 6, read-out: MRT0–t
[9] = rat, in vivo, control rats, oral YCHT 60 g/kg, plasma, n = 6, read-out: MRT0–∞
[10] = rat, in vivo, control rats, oral YCHT 60 g/kg, plasma, n = 6, read-out: Tmax
[11] = rat, in vivo, control rats, oral YCHT 60 g/kg, plasma, n = 6, read-out: t 1/2 (converted)
[12] = Sprague-Dawley, rat, plasma, po, 60 g/kg

| SMILES | CL/F ([1]; rat, in vivo, po, 60 g/kg) [mL/min/kg] | Cmax ([1]; rat, in vivo, po, 60 g/kg) [ng/mL] | MRT inf ([1]; rat, in vivo, po, 60 g/kg) [h] | MRT last ([1]; rat, in vivo, po, 60 g/kg) [h] | Tmax ([1]; rat, in vivo, po, 60 g/kg) [h] | half-life ([1]; rat, in vivo, po, 60 g/kg) [h] | AUC0–t [1, 3] [ug/L∗h] | AUC0–∞ [1, 3] [ug/L∗h] | Fr (relative bioavailability) [2, 4] [%] | CL/F [2, 5] [mL/min/kg] | Cmax [2, 5] [ng/mL] | MRT inf [2, 5] [h] | MRT last [2, 5] [h] | Tmax [2, 5] [h] | half-life [2, 5] [h] | AUC0–t [2, 6] | AUC0–∞ [2, 6] | also measured |
| --- | --- | --- | --- | --- | --- | --- | --- | --- | --- | --- | --- | --- | --- | --- | --- | --- | --- | --- |
| COc1cc2ccc(=O)oc2cc1O [Scopoletin] | 1180 | 3.53 ± 0.67 | 6.9 ± 4.2 | 4.4 ± 0.44 | 0.19 ± 0.04 | 3.62 ± 3.85 | 5.86 ± 0.50 | 7.41 ± 2.53 | 123.38 | 1100 | 3.34 ± 1.19 | 5.56 ± 0.63 | 4.81 ± 0.43 | 0.13 ± 0.05 | 2.2 ± 0.82 | 7.23 ± 1.84 ug/L∗h | 7.83 ± 2.00 ug/L∗h | P-gp substrate (P-glycoprotein (P-gp)): not P-gp substrates |
| COC(=O)C1=CO[C@@H](O[C@@H]2O[C@H](CO)[C@@H](O)[C@H](O)[C@H]2O)[C@@H]2C(CO)=CC[C@H]12 [Geniposide] |  |  |  |  |  |  | 1940.63 ± 210.72 | 1958.65 ± 206.96 | 257.67 | 55.7 | 1860 ± 109 | 5.99 ± 0.61 | 4.68 ± 0.57 | 0.58 ± 0.2 | 6.59 ± 2.46 | 5000.36 ± 755.13∗∗ ug/L∗h | 5223.83 ± 746.92∗∗ ug/L∗h | Cmax ([1]; rat, in vivo, 60 g/kg, normal group, oral YCHT, read-out: Cmax): 751 ± 47.7 ng/mL; CL/F [1, 7]: 147 mL/min/kg; MRT last [1, 8]: 4.57 ± 0.41 h; MRT inf [1, 9]: 4.8 ± 0.47 h; Tmax [1, 10]: 0.33 ± 0.13 h; half-life [1, 11]: 3.55 ± 0.38 h |
| O=C(O)c1cc(O)c2c(c1)C(=O)c1cccc(O)c1C2=O [Rhein] | 82 | 664 ± 50.3 | 5.38 ± 0.49 | 4.79 ± 0.36 | 0.33 ± 0.13 | 4.64 ± 2.14 | 2031.40 ± 385.58 | 2074.39 ± 387.77 | 268.45 | 31.2 | 1760 ± 140 | 4.67 ± 0.65 | 4.38 ± 0.41 | 0.54 ± 0.19 | 3.62 ± 1.97 | 5453.29 ± 1202.14∗∗ ug/L∗h | 5518.78 ± 1256.46∗∗ ug/L∗h |  |
| COc1cc(O)c2c(c1)C(=O)c1cc(C)cc(O)c1C2=O [Physcion] | 450 | 8.45 ± 1.61 | 3.54 ± 0.49 | 2.88 ± 0.25 | 1.25 ± 0.27 | 2.65 ± 0.99 | 21.05 ± 4.04 | 22.44 ± 5.54 | 213.68 | 211 | 9.99 ± 2.86 | 5.26 ± 1.3 | 4.07 ± 0.4 | 2.58 ± 1.11 | 3.06 ± 2.37 | 44.98 ± 13.92∗∗ ug/L∗h | 48.47 ± 12.74∗∗ ug/L∗h |  |
| Cc1cc(O)c2c(c1)C(=O)c1cccc(O)c1C2=O [Chrysophanol] | 363 | 34.5 ± 4.99 | 3.34 ± 0.21 | 2.93 ± 0.16 | 0.63 ± 0.26 | 2 ± 0.23 |  |  |  | 257 | 37.6 ± 6.51 | 4.2 ± 0.77 | 3.43 ± 0.4 | 0.88 ± 0.35 | 3.12 ± 1.74 |  |  | AUC0–t ([1]; rat, in vivo, po, 60 g/kg): 99.34 ± 10.12 ug/L∗h; AUC0–∞ ([1]; rat, in vivo, po, 60 g/kg): 103.57 ± 10.09 ug/L∗h; Fr (relative bioavailability) ([2]; Sprague-Dawley, rat, in vivo, po): 142.23%; AUC0–t ([2]; rat, in vivo, po, 60 g/kg): 141.29 ± 27.92∗∗ ug/L∗h; AUC0–∞ ([2]; rat, in vivo, po, 60 g/kg): 148.47 ± 25.04∗∗ ug/L∗h |
| COc1cc2ccc(=O)oc2cc1OC [Scoparone] |  |  |  |  |  |  | 2282.77 ± 390.03 | 2347.92 ± 428.69 | 227.64 |  |  |  |  |  |  | 5196.54 ± 513.37∗∗ ug/L∗h | 5197.06 ± 513.33∗∗ ug/L∗h | CL/F ([1]; rat, control rats, oral YCHT 60 g/kg, plasma, n = 6, read-out: CLz/F (converted)): 73.7 mL/min/kg; Cmax ([1]; rat, control rats, oral YCHT 60 g/kg, plasma, n = 6, read-out: Cmax): 939 ± 112 ng/mL; MRT last ([1]; rat, control rats, oral YCHT 60 g/kg, plasma, n = 6, read-out: MRT0–t): 3.19 ± 0.16 h; MRT inf ([1]; rat, control rats, oral YCHT 60 g/kg, plasma, n = 6, read-out: MRT0–∞): 3.51 ± 0.14 h; Tmax ([1]; rat, control rats, oral YCHT 60 g/kg, plasma, n = 6, read-out: Tmax): 0.54 ± 0.1 h; half-life ([1]; rat, control rats, oral YCHT 60 g/kg, plasma, n = 6, read-out: t 1/2 (converted)): 2.14 ± 0.71 h; CL/F [2, 12]: 32.7 mL/min/kg; Cmax [2, 12]: 1770 ± 107 ng/mL; MRT inf [2, 12]: 3.95 ± 0.26 h; MRT last [2, 12]: 3.94 ± 0.26 h; Tmax [2, 12]: 0.33 ± 0.13 h; half-life [2, 12]: 1.58 ± 0.13 h; AUC in model rats higher than in normal rats ([2]; model vs normal rats, oral YCHT): approximately 2 fold |
| O=C1c2cccc(O)c2C(=O)c2c(O)cc(CO)cc21 [Aloe-emodin] |  |  |  |  |  |  | 54.61 ± 6.50 | 60.86 ± 6.68 | 281.30 | 283 | 36.7 ± 3.09 | 4.07 ± 0.4 | 3.68 ± 0.34 | 0.58 ± 0.3 | 1.98 ± 0.71 | 153.62 ± 18.13∗∗ ug/L∗h | 158.71 ± 19.26∗∗ ug/L∗h | CL/F [1, 7]: 737 mL/min/kg; Cmax ([1]; rat, in vivo, control rats, oral YCHT 60 g/kg, plasma, n = 6, read-out: Cmax): 15.2 ± 1.68 ng/mL; MRT last [1, 8]: 3.34 ± 0.12 h; MRT inf [1, 9]: 4.33 ± 0.84 h; Tmax [1, 10]: 0.54 ± 0.19 h; half-life [1, 11]: 2.26 ± 1.15 h |
